Where two headings read alike, the source gives them in different places.
How the values were obtained:
[1] = Biodistribution in mice bearing PC-3 xenografts; type: in vivo, Balb/c nu/nu mice; settings: mouse, total radioactivity; for tissue uptake at 4 h / tissue uptake dose at 4 h: 4 h pi; for tissue uptake at 24 h / tissue uptake dose at 24 h: 24 h pi
Procedure: (§1) Each mouse was xenografted with a subcutaneous injection of 8 × 10⁶ PC-3 cells in the right hind leg. After approximately 4 weeks, the animals were injected into the tail vein with 100 µL of radiopeptide (100 pmol—110–130 kBq, diluted in PBS/BSA). Four animals were used for each time point per peptide. […] At the determined time points, the mice were euthanized, organs were collected and weighed, and their activity content was measured in the gamma counter. Results were presented as the percentage of injected activity per gram (%IA/g) for the collected organs, and the percentage of injected activity (%IA) for the gastrointestinal tract (GI) and the carcass. […] Statistical analysis was performed with GraphPad Prism 10 using two way ANOVA with Tuckey’s or Šidák’a post hoc analysis.

[2] = tested on: PC-3 xenografts; test: Biodistribution in mice bearing PC-3 xenografts; type: in vivo, Balb/c nu/nu mice; settings: PC-3 xenografted mice, between 4 and 24 h pi
Procedure: as §1

[3] = In vivo stability: intact radiopeptide in peripheral mouse blood 5 min pi, radio-HPLC; settings: for Percentage of intact peptide, Entresto: blood 5 min pi
Procedure: Two animals per peptide were injected intravenously with a bolus of test radioligand (50 MBq, 2 nmol of peptide in 100 μL PBS/EtOH v/v 9:1) – Control group. To inhibit NEP, additional groups of two mice per compound were orally treated with 12 mg Entresto® (Novartis, Basel, Switzerland) 30 min before receiving the intravenous injection—Entresto group. Five minutes post-injection (pi), the animals were euthanized, and the blood was collected and immediately mixed with EDTA (0.1 mM, 40 μL) in Eppendorf tubes on ice. The mixture was spun at 2000 g for 10 min at 4 °C in an Eppendorf Centrifuge 5430 R (Eppendorf AG, Hamburg, Germany), and the plasma was collected and diluted with an equal volume of MeCN (4 °C). After a second centrifugation at 15,000 g and 4 °C for 10 min, the supernatant was collected in an Eppendorf tube and concentrated to 50–100 μL at 50 °C using a mild stream of N2. PBS was added to the samples to reach a final volume of 200 μL, and the solutions were filtered through a syringe filter (0.22 μm, 13 mm, VWR International, Radnor, USA). The filtered solution was analyzed by reversed-phase radio-HPLC to determine the percentage of intact peptides. The peak corresponding to the intact peptide was identified by injection of an aliquot of the labeling solution.

[4] = tested on: PC-3 cells; test: In vitro GRPR specificity assay (uptake with or without NOTA-PEG2-RM26 block); type: cell-based, human
Procedure: After discarding the medium, the cells were washed with cold (4 °C) phosphate-buffered saline containing 1% w/v bovine serum albumin (PBS/BSA). The radiopeptides (Cf = 1 nM in 1 mL PBS/BSA) were added to all wells. A subset of wells was also treated with an excess of unlabeled GRPR-binding peptide NOTA-PEG2-RM26 (Bjäreback et al. [2025]) (Cf = 1 µM in 1 mL PBS/BSA) to block GRPR. After incubation for 1 h at 37 °C, the supernatant was removed, and the cells were washed and then collected by treating them with 1 M NaOH. The activity of the collected samples was measured with the gamma counter. This assay was performed in triplicate for each radiopeptide.

[5] = Balb/c nu/nu, blood, iv, 100 pmol, PC-3 xenografted Balb/c nu/nu mice, iv 100 pmol, mean ± SD, n = 4, read-out: Blood activity uptake
[6] = Balb/c nu/nu, bone, iv, 100 pmol, PC-3 xenografted Balb/c nu/nu mice, iv 100 pmol, mean ± SD, n = 4, read-out: Bone activity uptake
[7] = Balb/c nu/nu, kidneys, iv, 100 pmol, PC-3 xenografted Balb/c nu/nu mice, iv 100 pmol, mean ± SD, n = 4, read-out: Kidneys activity uptake
[8] = Balb/c nu/nu, liver, iv, 100 pmol, PC-3 xenografted Balb/c nu/nu mice, iv 100 pmol, mean ± SD, n = 4, read-out: Liver activity uptake
[9] = Balb/c nu/nu, lungs, iv, 100 pmol, PC-3 xenografted Balb/c nu/nu mice, iv 100 pmol, mean ± SD, n = 4, read-out: Lungs activity uptake
[10] = Balb/c nu/nu, muscle, iv, 100 pmol, PC-3 xenografted Balb/c nu/nu mice, iv 100 pmol, mean ± SD, n = 4, read-out: Muscle activity uptake
[11] = Balb/c nu/nu, pancreas, iv, 100 pmol, PC-3 xenografted Balb/c nu/nu mice, iv 100 pmol, mean ± SD, n = 4, read-out: Pancreas activity uptake
[12] = Balb/c nu/nu, small intestine, iv, 100 pmol, PC-3 xenografted Balb/c nu/nu mice, iv 100 pmol, mean ± SD, n = 4, read-out: Small Int. activity uptake
[13] = Balb/c nu/nu, spleen, iv, 100 pmol, PC-3 xenografted Balb/c nu/nu mice, iv 100 pmol, mean ± SD, n = 4, read-out: Spleen activity uptake
[14] = Balb/c nu/nu, stomach, iv, 100 pmol, PC-3 xenografted Balb/c nu/nu mice, iv 100 pmol, mean ± SD, n = 4, read-out: Stomach activity uptake
[15] = Balb/c nu/nu, tumor, iv, 100 pmol, PC-3 xenografted Balb/c nu/nu mice, iv 100 pmol, mean ± SD, n = 4, read-out: Tumor activity uptake
[16] = carcass, PC-3 xenografted Balb/c nu/nu mice, iv 100 pmol, mean ± SD, n = 4, read-out: Body activity uptake
[17] = gastrointestinal tract with content, PC-3 xenografted Balb/c nu/nu mice, iv 100 pmol, mean ± SD, n = 4, read-out: GI activity uptake

tissue uptake at 2 h ([1]; Balb/c nu/nu, blood, iv, 100 pmol, PC-3 xenografted Balb/c nu/nu mice, iv 100 pmol, 2 h pi, mean ± SD, n = 4, read-out: Blood activity uptake): 0.13 ± 0.05 %ID/g | tissue uptake at 4 h [1, 5]: 0.07 ± 0.03 %ID/g | tissue uptake at 24 h [1, 5]: 0.01 ± 0.01 %ID/g | tissue uptake at 2 h ([1]; Balb/c nu/nu, blood, iv, PC-3 xenografted Balb/c nu/nu mice, iv 100 pmol, 2 h pi blocked (co-injected 100-fold molar excess NOTA-PEG2-RM26), mean ± SD, n = 3, read-out: Blood activity uptake): 0.06 ± 0.02 %ID/g | tissue uptake at 2 h ([1]; Balb/c nu/nu, blood, lungs, spleen, muscle, bone, iv, 100 pmol, PC-3 xenografted mice, 2 h pi, read-out: activity uptake in non-target organs (blood, lungs, spleen, muscle, and bone)): < 0.6 %ID/g | tissue uptake at 2 h ([1]; Balb/c nu/nu, bone, iv, 100 pmol, PC-3 xenografted Balb/c nu/nu mice, iv 100 pmol, 2 h pi, mean ± SD, n = 4, read-out: Bone activity uptake): 0.13 ± 0.07 %ID/g | tissue uptake at 4 h [1, 6]: 0.14 ± 0.05 %ID/g | tissue uptake at 24 h [1, 6]: 0.09 ± 0.04 %ID/g | tissue uptake at 2 h ([1]; Balb/c nu/nu, bone, iv, PC-3 xenografted Balb/c nu/nu mice, iv 100 pmol, 2 h pi blocked (co-injected 100-fold molar excess NOTA-PEG2-RM26), mean ± SD, n = 3, read-out: Bone activity uptake): 0.13 ± 0.03 %ID/g | tissue uptake dose ([1]; Balb/c nu/nu, gastrointestinal tract with content, iv, 100 pmol, PC-3 xenografted mice, all time points (2, 4, 24 h pi), read-out: activity uptake for the GI with content): < 2 %ID | tissue uptake at 2 h ([1]; Balb/c nu/nu, kidneys, iv, 100 pmol, PC-3 xenografted Balb/c nu/nu mice, iv 100 pmol, 2 h pi, mean ± SD, n = 4, read-out: Kidneys activity uptake): 8.9 ± 2.5 %ID/g | tissue uptake at 4 h [1, 7]: 9.5 ± 2.1 %ID/g | tissue uptake at 24 h [1, 7]: 5.5 ± 0.6 %ID/g | tissue uptake at 2 h ([1]; Balb/c nu/nu, kidneys, iv, PC-3 xenografted Balb/c nu/nu mice, iv 100 pmol, 2 h pi blocked (co-injected 100-fold molar excess NOTA-PEG2-RM26), mean ± SD, n = 3, read-out: Kidneys activity uptake): 7.6 ± 1.2 %ID/g | tissue uptake at 2 h ([1]; Balb/c nu/nu, liver, iv, 100 pmol, PC-3 xenografted Balb/c nu/nu mice, iv 100 pmol, 2 h pi, mean ± SD, n = 4, read-out: Liver activity uptake): 0.24 ± 0.05 %ID/g | tissue uptake at 4 h [1, 8]: 0.2 ± 0.03 %ID/g | tissue uptake at 24 h [1, 8]: 0.14 ± 0.02 %ID/g | tissue uptake at 2 h ([1]; Balb/c nu/nu, liver, iv, PC-3 xenografted Balb/c nu/nu mice, iv 100 pmol, 2 h pi blocked (co-injected 100-fold molar excess NOTA-PEG2-RM26), mean ± SD, n = 3, read-out: Liver activity uptake): 0.2 ± 0.02 %ID/g | tissue uptake at 4 h [1, 9]: 0.3 ± 0.2 %ID/g | tissue uptake at 24 h [1, 9]: 0.07 ± 0.01 %ID/g | tissue uptake at 2 h ([1]; Balb/c nu/nu, lungs, iv, PC-3 xenografted Balb/c nu/nu mice, iv 100 pmol, 2 h pi blocked (co-injected 100-fold molar excess NOTA-PEG2-RM26), mean ± SD, n = 3, read-out: Lungs activity uptake): 0.21 ± 0.03 %ID/g | tissue uptake at 2 h ([1]; Balb/c nu/nu, muscle, iv, 100 pmol, PC-3 xenografted Balb/c nu/nu mice, iv 100 pmol, 2 h pi, mean ± SD, n = 4, read-out: Muscle activity uptake): 0.07 ± 0.06 %ID/g | tissue uptake at 4 h [1, 10]: 0.05 ± 0.02 %ID/g | tissue uptake at 24 h [1, 10]: 0.02 ± 0.01 %ID/g | tissue uptake at 2 h ([1]; Balb/c nu/nu, muscle, iv, PC-3 xenografted Balb/c nu/nu mice, iv 100 pmol, 2 h pi blocked (co-injected 100-fold molar excess NOTA-PEG2-RM26), mean ± SD, n = 3, read-out: Muscle activity uptake): 0.04 ± 0.01 %ID/g | tissue uptake at 2 h ([1]; Balb/c nu/nu, pancreas, iv, 100 pmol, PC-3 xenografted Balb/c nu/nu mice, iv 100 pmol, 2 h pi, mean ± SD, n = 4, read-out: Pancreas activity uptake): 7.3 ± 3 %ID/g | tissue uptake at 4 h [1, 11]: 2.9 ± 1 %ID/g | tissue uptake at 24 h [1, 11]: 0.43 ± 0.09 %ID/g | tissue uptake at 2 h ([1]; Balb/c nu/nu, small intestine, iv, 100 pmol, PC-3 xenografted Balb/c nu/nu mice, iv 100 pmol, 2 h pi, mean ± SD, n = 4, read-out: Small Int. activity uptake): 0.8 ± 0.5 %ID/g | tissue uptake at 4 h [1, 12]: 0.5 ± 0.2 %ID/g | tissue uptake at 24 h [1, 12]: 0.07 ± 0.04 %ID/g | tissue uptake at 2 h ([1]; Balb/c nu/nu, small intestine, iv, PC-3 xenografted Balb/c nu/nu mice, iv 100 pmol, 2 h pi blocked (co-injected 100-fold molar excess NOTA-PEG2-RM26), mean ± SD, n = 3, read-out: Small Int. activity uptake): 0.3 ± 0.1 %ID/g | tissue uptake at 2 h ([1]; Balb/c nu/nu, spleen, iv, 100 pmol, PC-3 xenografted Balb/c nu/nu mice, iv 100 pmol, 2 h pi, mean ± SD, n = 4, read-out: Spleen activity uptake): 0.15 ± 0.07 %ID/g | tissue uptake at 4 h [1, 13]: 0.15 ± 0.06 %ID/g | tissue uptake at 24 h [1, 13]: 0.11 ± 0.04 %ID/g | tissue uptake at 2 h ([1]; Balb/c nu/nu, spleen, iv, PC-3 xenografted Balb/c nu/nu mice, iv 100 pmol, 2 h pi blocked (co-injected 100-fold molar excess NOTA-PEG2-RM26), mean ± SD, n = 3, read-out: Spleen activity uptake): 0.12 ± 0.04 %ID/g | tissue uptake at 4 h [1, 14]: 1.3 ± 0.2 %ID/g | tissue uptake at 24 h [1, 14]: 0.14 ± 0.07 %ID/g | tissue uptake at 2 h ([1]; Balb/c nu/nu, stomach, iv, PC-3 xenografted Balb/c nu/nu mice, iv 100 pmol, 2 h pi blocked (co-injected 100-fold molar excess NOTA-PEG2-RM26), mean ± SD, n = 3, read-out: Stomach activity uptake): 0.36 ± 0.07 %ID/g | tissue uptake at 2 h ([1]; Balb/c nu/nu, stomach, small intestines, iv, 100 pmol, PC-3 xenografted mice, 2 h pi, read-out: activity uptake in the stomach and small intestines): < 2.5 %ID/g | tissue uptake at 2 h ([1]; Balb/c nu/nu, tumor, iv, 100 pmol, PC-3 xenografted Balb/c nu/nu mice, iv 100 pmol, 2 h pi, mean ± SD, n = 4, read-out: Tumor activity uptake): 15.8 ± 3.7 %ID/g | tissue uptake at 4 h [1, 15]: 15.3 ± 1.4 %ID/g | tissue uptake at 24 h [1, 15]: 12.1 ± 1.3 %ID/g | tissue uptake at 2 h ([1]; Balb/c nu/nu, tumor, iv, PC-3 xenografted Balb/c nu/nu mice, iv 100 pmol, 2 h pi blocked (co-injected 100-fold molar excess NOTA-PEG2-RM26), mean ± SD, n = 3, read-out: Tumor activity uptake): 3.1 ± 0.9 %ID/g | tissue uptake dose at 2 h ([1]; carcass, PC-3 xenografted Balb/c nu/nu mice, iv 100 pmol, 2 h pi, mean ± SD, n = 4, read-out: Body activity uptake): 1.8 ± 1.3 %ID | tissue uptake dose at 4 h [1, 16]: 2.3 ± 0.8 %ID | tissue uptake dose at 24 h [1, 16]: 0.5 ± 0.1 %ID | tissue uptake dose at 2 h ([1]; gastrointestinal tract with content, PC-3 xenografted Balb/c nu/nu mice, iv 100 pmol, 2 h pi, mean ± SD, n = 4, read-out: GI activity uptake): 1.5 ± 0.4 %ID | tissue uptake dose at 4 h [1, 17]: 0.7 ± 0.2 %ID | tissue uptake dose at 24 h [1, 17]: 0.3 ± 0.2 %ID | tumor retention of activity [2]: around 80% | Percentage of intact peptide, Entresto ([3]; NMRI mice, 12 mg Entresto orally 30 min before injection, recorded value n1): 92% | Percentage of intact peptide, Entresto ([3]; NMRI mice, 12 mg Entresto orally 30 min before injection, recorded value n2): 94% | Percentage of intact peptide, Entresto ([3]; healthy NMRI mice, 12 mg Entresto orally 30 min before iv injection (NEP inhibition), radio-HPLC, mean of n = 2): 93% | Percentage of intact peptide, Control ([3]; healthy NMRI mice, iv 50 MBq, 2 nmol, peripheral blood 5 min pi, radio-HPLC, mean of n = 2): 85% [81% - 90%]
Structure (SMILES): CC(C)C[C@H](NC(=O)C[C@H](O)[C@H](CC(C)C)NC(=O)[C@H](Cc1c[nH]cn1)NC(=O)CN(C)C(=O)[C@@H](NC(=O)[C@H](C)NC(=O)[C@](C)(Cc1c[nH]c2ccccc12)NC(=O)[C@H](CCC(N)=O)NC(=O)[C@@H](Cc1ccccc1)NC(=O)CN1CCC(NC(=O)COCCOCCNC(=O)CCC(C(=O)O)N2CCN(CC(=O)O)CCN(CC(=O)O)CCN(CC(=O)O)CC2)CC1)C(C)C)C(N)=O (stereo partly drawn) [[^177Lu]Lu-PKB2, metal not drawn]
in vitro binding specificity ([4]; 1 nM radiopeptide, 1 h at 37 °C, block with 1 µM NOTA-PEG2-RM26, n = 3): GRPR-mediated activity uptake | total cellular activity uptake (rank among the three radiopeptides) ([4]; 1 nM, 37 °C, n = 3): lowest

— PMC12615863, “Improving GRPR-targeting peptides for radiotheranostics application: insights from chelator modifications and α-methyl-L tryptophan substitution” (EJNMMI Radiopharmacy and Chemistry, 2025)
